From publication PMC10143825, “ABT-333 (Dasabuvir) Increases Action Potential Duration and Provokes Early Afterdepolarizations in Canine Left Ventricular Cells via Inhibition of IKr” (Pharmaceuticals, 2023)

Target: T1, hERG channel (Homo sapiens, UniProt Q12809)
T1 construct: gene KCNH2
Assay: cell-based

T1 sequence (Q12809 whole entry): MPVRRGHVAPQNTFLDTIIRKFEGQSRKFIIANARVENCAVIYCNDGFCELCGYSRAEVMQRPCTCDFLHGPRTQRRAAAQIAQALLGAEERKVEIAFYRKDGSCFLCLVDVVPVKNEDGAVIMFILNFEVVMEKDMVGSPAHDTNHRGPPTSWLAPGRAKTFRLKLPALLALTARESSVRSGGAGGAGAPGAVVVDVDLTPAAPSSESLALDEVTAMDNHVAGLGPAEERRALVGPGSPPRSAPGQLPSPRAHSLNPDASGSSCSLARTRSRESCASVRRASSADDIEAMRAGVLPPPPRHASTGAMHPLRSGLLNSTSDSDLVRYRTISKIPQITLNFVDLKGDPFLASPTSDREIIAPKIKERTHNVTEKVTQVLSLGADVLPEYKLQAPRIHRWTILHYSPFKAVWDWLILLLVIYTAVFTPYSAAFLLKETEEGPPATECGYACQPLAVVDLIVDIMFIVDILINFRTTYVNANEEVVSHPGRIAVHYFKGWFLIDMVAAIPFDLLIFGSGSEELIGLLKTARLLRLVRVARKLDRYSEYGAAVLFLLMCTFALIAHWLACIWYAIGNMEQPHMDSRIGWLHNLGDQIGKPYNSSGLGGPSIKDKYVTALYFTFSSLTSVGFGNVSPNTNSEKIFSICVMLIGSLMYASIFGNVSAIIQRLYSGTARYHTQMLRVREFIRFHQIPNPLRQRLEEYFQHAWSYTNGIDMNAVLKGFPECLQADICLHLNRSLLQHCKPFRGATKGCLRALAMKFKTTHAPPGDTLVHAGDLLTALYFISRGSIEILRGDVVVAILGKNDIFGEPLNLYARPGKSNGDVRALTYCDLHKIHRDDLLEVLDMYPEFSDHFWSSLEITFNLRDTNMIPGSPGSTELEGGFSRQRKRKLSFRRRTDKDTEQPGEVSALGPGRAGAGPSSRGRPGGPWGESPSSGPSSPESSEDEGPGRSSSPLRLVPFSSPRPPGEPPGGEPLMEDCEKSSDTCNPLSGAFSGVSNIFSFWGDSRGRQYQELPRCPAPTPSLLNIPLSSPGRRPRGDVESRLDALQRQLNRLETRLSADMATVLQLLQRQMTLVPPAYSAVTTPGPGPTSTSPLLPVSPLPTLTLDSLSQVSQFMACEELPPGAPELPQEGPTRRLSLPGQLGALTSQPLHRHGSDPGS

## COc1c(-c2ccc3cc(NS(C)(=O)=O)ccc3c2)cc(-n2ccc(=O)[nH]c2=O)cc1C(C)(C)C [ABT-333]
  IC50: 3.2 µM
